Experiment: xn = mol fraction of the nth substance listed
Details: 101 kPa, Liquid; for speed of sound: Sing-around technique in a fixed-path interferometer

CCCCCCCCCC [decane] + CCCCO
Details | mass density, 298.15 K [kg/m3] | mass density, 303.15 K [kg/m3] | mass density, 308.15 K [kg/m3] | speed of sound, 298.15 K [m/s] | speed of sound, 303.15 K [m/s] | speed of sound, 308.15 K [m/s] | viscosity, 298.15 K [mPa·s]
x2 = 0 | 726.806 | 723.042 | 719.23 | 1234.8 | 1215.2 | 1195.6 | 0.852
x2 = 0.0678 | 728.769 | 724.903 | 721.031 | 1230.4 | 1210.6 | 1191.9 | 0.845
x2 = 0.1105 | 730.259 | 726.415 | 722.511 | 1228.8 | 1209.1 | 1189.4 | 0.855
x2 = 0.1614 | 732.194 | 728.365 | 724.437 | 1227.3 | 1207.6 | 1187.9 | 0.868
x2 = 0.2372 | 735.44 | 731.639 | 727.679 | 1225.4 | 1206.1 | 1185.5 | 0.895
x2 = 0.3068 | 738.779 | 734.994 | 731.004 | 1224.1 | 1204.5 | 1184.6 | 0.931
x2 = 0.4278 | 745.484 | 741.679 | 737.66 | 1222.9 | 1203.7 | 1183.8 | 1.019
x2 = 0.5071 | 750.606 | 746.798 | 742.769 | 1222.8 | 1203.8 | 1184.3 | 1.102
x2 = 0.5547 | 754.019 | 750.194 | 746.151 | 1222.9 | 1203.9 | 1184.8 | 1.164
x2 = 0.6068 | 758.098 | 754.237 | 750.219 | 1223.4 | 1204.5 | 1185.6 | 1.244
x2 = 0.7032 | 766.65 | 762.82 | 758.774 | 1224.9 | 1206.3 | 1187.6 | 1.432
x2 = 0.8036 | 777.321 | 773.625 | 769.593 | 1227.9 | 1210.2 | 1191.3 | 1.685
x2 = 0.8498 | 782.998 | 779.309 | 775.279 | 1229.9 | 1212.4 | 1194 | 1.843
x2 = 0.9015 | 790.035 | 786.406 | 782.421 | 1232.8 | 1215.7 | 1197.9 | 2.047
x2 = 0.95 | 797.464 | 794.041 | 790.078 | 1236.2 | 1219.9 | 1203.1 | 2.277

CCCCCC [hexane] + CCCCO
Details | mass density, 298.15 K [kg/m3] | mass density, 303.15 K [kg/m3] | mass density, 308.15 K [kg/m3] | speed of sound, 298.15 K [m/s] | speed of sound, 303.15 K [m/s] | speed of sound, 308.15 K [m/s] | viscosity, 298.15 K [mPa·s]
x2 = 0 | 655.072 | 650.369 | 645.767 | 1077.8 | 1055.2 | 1032.9 | 0.313
x2 = 0.0507 | 660.196 | 655.432 | 650.791 | 1077.6 | 1054.9 | 1032.7 | 0.323
x2 = 0.101 | 665.602 | 660.733 | 656.143 | 1079.4 | 1056.8 | 1034.5 | 0.338
x2 = 0.1524 | 671.434 | 666.54 | 661.908 | 1082.5 | 1059.9 | 1037.6 | 0.356
x2 = 0.2574 | 684.29 | 679.54 | 674.857 | 1091.7 | 1069.1 | 1046.8 | 0.409
x2 = 0.379 | 700.46 | 696.019 | 691.525 | 1106.3 | 1083.7 | 1062 | 0.505
x2 = 0.4125 | 705.163 | 700.869 | 696.345 | 1111.1 | 1088.5 | 1066.7 | 0.547
x2 = 0.4502 | 710.564 | 706.47 | 701.99 | 1116.7 | 1094.1 | 1072.3 | 0.587
x2 = 0.5121 | 719.663 | 715.869 | 711.606 | 1126.5 | 1103.9 | 1082.5 | 0.679
x2 = 0.6005 | 733.301 | 730.025 | 725.938 | 1141.9 | 1120.8 | 1099.2 | 0.854
x2 = 0.7004 | 749.66 | 746.763 | 742.943 | 1162.2 | 1141.1 | 1120.6 | 1.11
x2 = 0.8202 | 770.812 | 767.985 | 764.319 | 1190.9 | 1171.5 | 1151.5 | 1.541
x2 = 0.8523 | 776.78 | 773.953 | 770.292 | 1199 | 1179.9 | 1160.3 | 1.685
x2 = 0.8957 | 785.079 | 782.252 | 778.547 | 1210.5 | 1192.1 | 1172.9 | 1.901
x2 = 0.9476 | 795.298 | 792.462 | 788.743 | 1225.1 | 1207.9 | 1189.6 | 2.209

CCCCCCCC [octane] + CCCCO
Details | mass density, 298.15 K [kg/m3] | mass density, 303.15 K [kg/m3] | mass density, 308.15 K [kg/m3] | speed of sound, 298.15 K [m/s] | speed of sound, 303.15 K [m/s] | speed of sound, 308.15 K [m/s] | viscosity, 298.15 K [mPa·s]
x2 = 0 | 698.58 | 694.497 | 690.416 | 1172.7 | 1152.1 | 1131.7 | 0.518
x2 = 0.0563 | 701.448 | 697.299 | 693.192 | 1169.8 | 1149.2 | 1128.6 | 0.525
x2 = 0.1091 | 704.623 | 700.473 | 696.337 | 1169.4 | 1148.8 | 1128.2 | 0.54
x2 = 0.1579 | 707.716 | 703.646 | 699.455 | 1169.4 | 1149 | 1128.1 | 0.55
x2 = 0.2245 | 712.309 | 708.268 | 704.085 | 1170.1 | 1149.5 | 1129.2 | 0.585
x2 = 0.3117 | 718.911 | 714.997 | 710.775 | 1172.1 | 1151.8 | 1131.4 | 0.636
x2 = 0.4013 | 726.41 | 722.577 | 718.357 | 1175.4 | 1155.4 | 1135.6 | 0.708
x2 = 0.4519 | 731.021 | 727.253 | 723.057 | 1177.8 | 1158.1 | 1138 | 0.762
x2 = 0.5106 | 736.716 | 733.019 | 728.779 | 1181.2 | 1161.7 | 1141.9 | 0.837
x2 = 0.6032 | 746.6 | 742.919 | 738.734 | 1187.9 | 1169.1 | 1149.6 | 0.992
x2 = 0.7087 | 759.397 | 755.747 | 751.584 | 1197.5 | 1179.4 | 1160.3 | 1.232
x2 = 0.8063 | 772.907 | 769.349 | 765.239 | 1208.9 | 1191.2 | 1172.8 | 1.539
x2 = 0.8492 | 779.452 | 775.973 | 771.885 | 1214.9 | 1197.5 | 1179.4 | 1.711
x2 = 0.909 | 789.203 | 786.026 | 781.895 | 1223.7 | 1207.2 | 1189.3 | 1.991
x2 = 0.956 | 797.537 | 794.495 | 790.449 | 1231.9 | 1215.5 | 1198.8 | 2.262

Reference: the NIST ThermoML archive (doi:10.1016/j.jct.2007.05.016)
